The source of these data is PubChem BioAssay (NCI).

Where “and” joins values, the source holds several entries; their conditions need not be identical. Identical values can stand only once.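 Exposure lasted 48 hours, with cells grown in 96-well plates and compounds tested at five concentrations. GI50 = concentration required for 50% inhibition of growth. TGI is the concentration that stops growth completely.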 Some results are limits rather than exact numbers.

Some test systems named below: SN12K1 renal; P388 leukemia; P388/ADR leukemia; RXF-631 renal.
What all share (experiment): NCI tumour cell line growth inhibition, 48 h

Take `OCC1OC(n2cnc3c2NC=NC[C@H]3O)C(O)C1O` (stereo partly specified): the TGI in the experiment with SN12K1 renal, in the experiment on P388 leukemia and with P388/ADR leukemia was > 450 µM in each case.

Turning to `CCOC(=O)C(N=Nc1ccc(S(N)(=O)=O)cc1)C(C)=O` (stereo unspecified), the TGI in the experiment with RXF-631 renal is > 100 µM.

As to `COc1cc2c(cc1OCc1ccccc1)CNCC2`, the TGI in the experiment on RXF-631 renal was > 100 µM.

Regarding `CC(=O)OCC1OC(Nc2ncc(-c3ccc(C)cc3)s2)C(OC(C)=O)C(OC(C)=O)C1OC(C)=O` (stereo unspecified), the TGI is > 100 µM with SN12K1 renal, 72.5 µM in the experiment with P388 leukemia and > 94.1 µM with P388/ADR leukemia.

Consider `C=C1C(=O)O[C@H]2[C@H]1[C@@H](OC(=O)C=C(C)C)CC1=C[C@@H](C[C@@]3(C)O[C@@H]23)OC1=O`, for which the GI50 with SN12K1 renal was 17.6 µM. Also, the TGI with SN12K1 renal was 21.3 µM and 35.5 µM; with P388 leukemia it was 0.914 µM; in the experiment with P388/ADR leukemia it was 1120 µM and 1250 µM.

In the case of `COc1ccc(C(=O)C(CO)Oc2ccccc2OC)cc1OC` (stereo unspecified), the TGI with RXF-631 renal was > 100 µM.

Turning to `N#C/C(=C\c1ccc(O)c(O)c1)C(N)=O`, the TGI in the experiment on RXF-631 renal was > 100 µM.

As to `O=c1cc(-c2ccccc2)[nH]c2cc3c(cc12)OCO3`, the TGI in the experiment with RXF-631 renal was > 100 µM.

Turning to `CCN1CCN(c2ccc(Nc3ccnc4ccc5nn(C)nc5c34)cc2)CC1`, the TGI in the experiment with RXF-631 renal came to 23.9 µM.
